Reference: ChEMBL document CHEMBL4011656, “Discovery and Optimization of Chromeno[2,3-c]pyrrol-9(2H)-ones as Novel Selective and Orally Bioavailable Phosphodiesterase 5 Inhibitors for the Treatment of Pulmonary Arterial Hypertension” (J Med Chem, 2017)
Activity calls are given as the source filed them. No cut-off for these calls is given here.

Legend:
[1] = target: cGMP-dependent 3',5'-cyclic phosphodiesterase (Homo sapiens, UniProt O00408); assay: Inhibition of PDE2A (580 to 919 residues) (unknown origin) expressed in Escherichia coli BL21(DE3) using [3H]cGMP or [3H]cAMP as substrate after 15 mins by liquid scintillation counting method
Chain of cGMP-dependent 3',5'-cyclic phosphodiesterase (O00408 whole entry, the tested form may be a part): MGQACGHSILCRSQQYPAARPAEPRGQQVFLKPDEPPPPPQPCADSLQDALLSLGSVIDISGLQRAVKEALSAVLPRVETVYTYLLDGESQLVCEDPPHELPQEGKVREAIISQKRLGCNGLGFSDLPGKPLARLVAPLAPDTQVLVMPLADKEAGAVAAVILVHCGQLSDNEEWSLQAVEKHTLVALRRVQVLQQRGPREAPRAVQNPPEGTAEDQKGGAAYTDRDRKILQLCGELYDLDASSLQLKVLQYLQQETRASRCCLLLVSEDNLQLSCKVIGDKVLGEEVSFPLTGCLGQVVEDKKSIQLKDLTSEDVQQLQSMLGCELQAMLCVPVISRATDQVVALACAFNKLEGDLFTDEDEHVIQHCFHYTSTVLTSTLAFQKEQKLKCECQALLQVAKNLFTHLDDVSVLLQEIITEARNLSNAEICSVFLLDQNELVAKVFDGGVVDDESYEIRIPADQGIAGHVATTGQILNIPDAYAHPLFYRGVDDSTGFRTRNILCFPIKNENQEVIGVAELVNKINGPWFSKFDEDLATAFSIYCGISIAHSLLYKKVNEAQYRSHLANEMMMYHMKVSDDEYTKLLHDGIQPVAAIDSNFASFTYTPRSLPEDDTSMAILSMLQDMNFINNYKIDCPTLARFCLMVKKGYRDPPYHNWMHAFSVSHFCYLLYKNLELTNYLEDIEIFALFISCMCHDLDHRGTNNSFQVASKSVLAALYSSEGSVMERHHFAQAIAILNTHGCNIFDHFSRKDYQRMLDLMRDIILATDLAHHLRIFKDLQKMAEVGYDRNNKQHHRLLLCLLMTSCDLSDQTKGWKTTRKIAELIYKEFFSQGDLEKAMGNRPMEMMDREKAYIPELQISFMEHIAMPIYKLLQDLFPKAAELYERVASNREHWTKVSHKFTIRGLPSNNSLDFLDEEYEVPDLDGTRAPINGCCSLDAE

[2] = Half life in Sprague-Dawley rat at 5 mg/kg, po by LC-MS/MS analysis; format: ADME, organism-based; details: in vivo
[3] = Cmax in Sprague-Dawley rat at 5 mg/kg, po by LC-MS/MS analysis; format: ADME, organism-based; set-up: dose 5 mg/kg, route oral; details: in vivo
[4] = target: T1, Cytochrome P450 2C8 (Homo sapiens, UniProt P10632); assay: Inhibition of CYP2C8 in human microsomes in presence of NADPH; format: ADME
T1 sequence (P10632 whole entry): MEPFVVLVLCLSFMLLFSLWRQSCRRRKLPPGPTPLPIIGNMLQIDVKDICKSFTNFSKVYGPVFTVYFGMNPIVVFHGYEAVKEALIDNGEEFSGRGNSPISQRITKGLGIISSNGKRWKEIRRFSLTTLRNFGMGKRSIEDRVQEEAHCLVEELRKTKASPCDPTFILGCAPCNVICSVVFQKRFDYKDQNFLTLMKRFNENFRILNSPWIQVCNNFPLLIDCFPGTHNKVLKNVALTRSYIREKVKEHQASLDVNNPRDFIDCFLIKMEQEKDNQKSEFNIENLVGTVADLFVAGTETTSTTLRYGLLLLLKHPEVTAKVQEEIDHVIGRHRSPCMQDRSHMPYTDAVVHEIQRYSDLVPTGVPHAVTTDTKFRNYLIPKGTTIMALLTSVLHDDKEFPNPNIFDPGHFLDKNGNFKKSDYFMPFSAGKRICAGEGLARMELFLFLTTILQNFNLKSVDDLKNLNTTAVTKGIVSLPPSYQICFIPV

[5] = Hepatic clearance in human microsomes at 0.5 uM; format: ADME, microsome; details: liver microsomes
[6] = Hepatic clearance in rat liver microsomes at 0.5 uM; format: ADME, microsome
[7] = AUC (0 to infinity) in Sprague-Dawley rat at […], iv by LC-MS/MS analysis; format: ADME, organism-based; set-up: dose 2.5 mg/kg, time infinity, route intravenous; details: in vivo
[8] = test system: Mus musculus; assay: Acute toxicity in Kunming mouse assessed as effect on water consumption at 1000 to 1500 mg/kg, po administered as single dose measured up to 2 weeks post dose; format: organism-based; details: in vivo, 336 h
[9] = AUC (0 to t) in Sprague-Dawley rat at 5 mg/kg, po by LC-MS/MS analysis; format: ADME, organism-based; details: in vivo
[10] = Acute toxicity in Kunming mouse administered as single oral dose measured up to 2 weeks post dose; details: in vivo
[11] = target: Cytochrome P450 2D6 (Homo sapiens, UniProt P10635); assay: Inhibition of CYP2D6 in human microsomes in presence of NADPH; format: ADME
Chain of Cytochrome P450 2D6 (P10635 whole entry, the tested form may be a part): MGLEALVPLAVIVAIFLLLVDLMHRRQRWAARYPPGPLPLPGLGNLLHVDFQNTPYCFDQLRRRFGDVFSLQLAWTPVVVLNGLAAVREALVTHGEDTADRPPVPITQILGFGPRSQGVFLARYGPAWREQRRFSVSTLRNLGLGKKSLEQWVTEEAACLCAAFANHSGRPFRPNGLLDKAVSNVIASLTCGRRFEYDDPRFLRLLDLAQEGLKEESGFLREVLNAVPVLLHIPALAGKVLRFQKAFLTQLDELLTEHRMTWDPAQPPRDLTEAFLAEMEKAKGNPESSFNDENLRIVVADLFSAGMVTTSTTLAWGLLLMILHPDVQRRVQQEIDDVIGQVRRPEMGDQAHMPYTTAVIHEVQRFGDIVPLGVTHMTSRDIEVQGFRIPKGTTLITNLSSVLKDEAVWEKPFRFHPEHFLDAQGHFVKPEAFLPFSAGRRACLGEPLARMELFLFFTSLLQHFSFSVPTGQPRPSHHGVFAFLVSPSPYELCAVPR

[12] = target: cAMP and cAMP-inhibited cGMP 3',5'-cyclic phosphodiesterase 10A (Homo sapiens, UniProt Q9Y233); assay: Inhibition of PDE10A (449 to 770 residues) (unknown origin) expressed in Escherichia coli BL21(DE3) using [3H]cGMP or [3H]cAMP as substrate after 15 mins by liquid scintillation counting method
Chain of cAMP and cAMP-inhibited cGMP 3',5'-cyclic phosphodiesterase 10A (Q9Y233 whole entry, the tested form may be a part): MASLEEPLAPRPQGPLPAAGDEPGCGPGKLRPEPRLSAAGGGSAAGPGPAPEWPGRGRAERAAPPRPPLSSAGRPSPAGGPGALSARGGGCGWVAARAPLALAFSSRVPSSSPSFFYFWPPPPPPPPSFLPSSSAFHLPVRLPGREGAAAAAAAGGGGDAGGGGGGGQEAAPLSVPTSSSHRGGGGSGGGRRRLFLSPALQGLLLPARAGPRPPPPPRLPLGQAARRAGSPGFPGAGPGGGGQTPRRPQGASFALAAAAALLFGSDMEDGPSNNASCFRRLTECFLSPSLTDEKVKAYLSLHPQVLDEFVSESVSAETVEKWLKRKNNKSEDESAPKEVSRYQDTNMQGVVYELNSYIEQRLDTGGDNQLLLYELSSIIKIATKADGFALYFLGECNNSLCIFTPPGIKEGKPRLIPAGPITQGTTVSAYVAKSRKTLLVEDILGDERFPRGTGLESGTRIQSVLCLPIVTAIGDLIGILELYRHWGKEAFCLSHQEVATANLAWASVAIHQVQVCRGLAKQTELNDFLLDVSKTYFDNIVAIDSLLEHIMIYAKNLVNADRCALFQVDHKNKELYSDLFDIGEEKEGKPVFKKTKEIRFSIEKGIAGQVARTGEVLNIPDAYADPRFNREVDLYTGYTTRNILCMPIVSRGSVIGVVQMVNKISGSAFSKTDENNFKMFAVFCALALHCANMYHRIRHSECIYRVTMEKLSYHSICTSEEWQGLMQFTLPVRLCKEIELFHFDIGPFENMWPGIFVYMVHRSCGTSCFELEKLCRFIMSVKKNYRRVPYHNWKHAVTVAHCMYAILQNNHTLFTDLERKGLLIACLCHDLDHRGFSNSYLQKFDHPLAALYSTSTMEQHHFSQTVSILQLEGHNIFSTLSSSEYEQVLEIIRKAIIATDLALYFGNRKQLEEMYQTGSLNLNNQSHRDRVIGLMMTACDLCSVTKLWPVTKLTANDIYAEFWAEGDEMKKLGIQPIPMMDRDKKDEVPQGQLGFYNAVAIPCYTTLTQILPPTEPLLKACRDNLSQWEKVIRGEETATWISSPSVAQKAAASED

[13] = test system: Rattus norvegicus; assay: Toxicity in Sprague-Dawley rat assessed as effect on body weight up to 300 mg/kg, po daily for 2 weeks; format: organism-based; details: in vivo, 336 h
[14] = Half life in Sprague-Dawley rat at […], iv by LC-MS/MS analysis; format: ADME, organism-based; details: in vivo
[15] = test system: Mus musculus; assay: Acute toxicity in Kunming mouse assessed as mortality at 1000 to 1500 mg/kg, po administered as single dose measured up to 2 weeks post dose; format: organism-based; details: in vivo, 336 h
[16] = target: Cytochrome P450 2C19 (Homo sapiens, UniProt P33261); assay: Inhibition of CYP2C19 in human microsomes in presence of NADPH; format: ADME
Chain of Cytochrome P450 2C19 (P33261 whole entry): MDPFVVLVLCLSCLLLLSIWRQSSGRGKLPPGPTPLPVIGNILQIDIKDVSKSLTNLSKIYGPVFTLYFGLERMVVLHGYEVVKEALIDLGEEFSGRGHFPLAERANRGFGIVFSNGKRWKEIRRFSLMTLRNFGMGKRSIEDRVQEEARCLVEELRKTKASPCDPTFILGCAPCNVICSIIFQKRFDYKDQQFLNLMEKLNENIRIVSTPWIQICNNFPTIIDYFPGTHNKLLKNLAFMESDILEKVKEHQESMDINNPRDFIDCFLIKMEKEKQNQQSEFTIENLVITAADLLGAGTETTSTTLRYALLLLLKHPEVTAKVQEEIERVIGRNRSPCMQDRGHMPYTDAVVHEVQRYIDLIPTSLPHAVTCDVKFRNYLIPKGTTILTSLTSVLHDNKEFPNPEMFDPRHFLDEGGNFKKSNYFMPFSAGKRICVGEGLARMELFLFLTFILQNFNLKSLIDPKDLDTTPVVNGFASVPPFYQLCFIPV

[17] = test system: Mus musculus; assay: Acute toxicity in Kunming mouse assessed as effect on body weight at 1000 to 1500 mg/kg, po administered as single dose measured up to 2 weeks post dose; format: organism-based; details: in vivo, 336 h
[18] = target: Cytochrome P450 2C9 (Homo sapiens, UniProt P11712); assay: Inhibition of CYP2C9 in human microsomes in presence of NADPH; format: ADME
Chain of Cytochrome P450 2C9 (P11712 whole entry, the tested form may be a part): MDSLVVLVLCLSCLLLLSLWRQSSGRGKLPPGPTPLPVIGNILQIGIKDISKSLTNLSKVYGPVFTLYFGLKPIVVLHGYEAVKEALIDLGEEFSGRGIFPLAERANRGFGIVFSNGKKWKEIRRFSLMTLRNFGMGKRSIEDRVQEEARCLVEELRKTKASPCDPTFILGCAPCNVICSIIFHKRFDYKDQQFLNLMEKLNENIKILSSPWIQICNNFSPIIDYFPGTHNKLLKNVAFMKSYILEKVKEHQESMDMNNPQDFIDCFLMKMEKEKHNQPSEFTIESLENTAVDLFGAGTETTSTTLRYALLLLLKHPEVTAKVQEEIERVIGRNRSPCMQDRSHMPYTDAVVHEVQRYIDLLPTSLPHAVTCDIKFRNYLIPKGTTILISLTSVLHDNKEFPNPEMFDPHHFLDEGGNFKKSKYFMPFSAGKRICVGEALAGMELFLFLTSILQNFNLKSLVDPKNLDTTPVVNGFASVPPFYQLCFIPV

[19] = target: High affinity cGMP-specific 3',5'-cyclic phosphodiesterase 9A (Homo sapiens, UniProt O76083); assay: Inhibition of PDE9A2 (181 to 506 residues) (unknown origin) expressed in Escherichia coli BL21(DE3) using [3H]cGMP or [3H]cAMP as substrate after 15 mins by liquid scintillation counting method
Chain of High affinity cGMP-specific 3',5'-cyclic phosphodiesterase 9A (O76083 whole entry, the tested form may be a part): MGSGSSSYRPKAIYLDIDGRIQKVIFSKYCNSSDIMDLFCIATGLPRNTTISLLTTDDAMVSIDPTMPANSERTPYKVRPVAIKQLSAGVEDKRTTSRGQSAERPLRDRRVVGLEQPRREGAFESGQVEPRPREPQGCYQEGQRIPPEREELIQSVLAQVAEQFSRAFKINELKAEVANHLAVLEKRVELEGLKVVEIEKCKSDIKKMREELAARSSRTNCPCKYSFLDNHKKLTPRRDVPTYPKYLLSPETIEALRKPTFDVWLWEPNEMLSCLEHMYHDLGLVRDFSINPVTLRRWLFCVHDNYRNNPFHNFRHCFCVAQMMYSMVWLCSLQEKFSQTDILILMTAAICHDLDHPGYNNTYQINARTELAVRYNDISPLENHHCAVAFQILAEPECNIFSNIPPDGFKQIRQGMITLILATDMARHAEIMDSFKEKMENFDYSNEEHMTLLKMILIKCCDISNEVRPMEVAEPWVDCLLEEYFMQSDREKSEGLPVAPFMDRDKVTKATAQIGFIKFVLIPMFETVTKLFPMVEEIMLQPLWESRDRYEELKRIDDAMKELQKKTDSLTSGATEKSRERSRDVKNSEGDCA

[20] = test system: Mus musculus; assay: Acute toxicity in Kunming mouse assessed as effect on food consumption at 1000 to 1500 mg/kg, po administered as single dose measured up to 2 weeks post dose; format: organism-based; details: in vivo, 336 h
[21] = test system: Rattus norvegicus; assay: Toxicity in Sprague-Dawley rat assessed as overt toxicity up to 300 mg/kg, po daily for 2 weeks; format: organism-based; details: in vivo, 336 h
[22] = target: Dual specificity calcium/calmodulin-dependent 3',5'-cyclic nucleotide phosphodiesterase 1B (Homo sapiens, UniProt Q01064); assay: Inhibition of PDE1B (10 to 487 residues) (unknown origin) expressed in Escherichia coli BL21(DE3) using [3H]cAMP or [3H]cGMP as substrate after 15 mins by liquid scintillation counting method
Chain of Dual specificity calcium/calmodulin-dependent 3',5'-cyclic nucleotide phosphodiesterase 1B (Q01064 whole entry, the tested form may be a part): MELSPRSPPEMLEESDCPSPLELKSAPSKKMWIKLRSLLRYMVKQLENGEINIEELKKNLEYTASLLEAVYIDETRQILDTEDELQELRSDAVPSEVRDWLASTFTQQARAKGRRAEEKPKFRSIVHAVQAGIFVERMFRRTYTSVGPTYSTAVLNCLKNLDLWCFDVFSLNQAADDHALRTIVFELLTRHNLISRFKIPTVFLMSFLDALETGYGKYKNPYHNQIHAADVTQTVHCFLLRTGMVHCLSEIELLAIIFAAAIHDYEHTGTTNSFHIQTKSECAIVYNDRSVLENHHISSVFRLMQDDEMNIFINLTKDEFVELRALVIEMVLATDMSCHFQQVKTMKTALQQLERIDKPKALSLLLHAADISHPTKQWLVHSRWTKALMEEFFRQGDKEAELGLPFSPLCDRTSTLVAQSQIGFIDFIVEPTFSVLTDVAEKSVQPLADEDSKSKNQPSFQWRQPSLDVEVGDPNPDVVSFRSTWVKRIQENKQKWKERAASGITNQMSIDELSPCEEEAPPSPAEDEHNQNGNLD

[23] = test system: Rattus norvegicus; assay: Reduction in MCT-induced increase in right ventricle hypertrophy index in Wistar rat model of monocrotaline pulmonary arterial hypertension at 5 mg/kg, po for 3 weeks; format: functional, organism-based
[24] = Apparent clearance in rat liver microsomes at 0.5 uM; format: ADME, microsome; details: read-out: CLH(app)
[25] = test system: Mus musculus; assay: Acute toxicity in Kunming mouse assessed as poisoning symptoms at 1000 to 1500 mg/kg, po administered as single dose measured up to 2 weeks post dose; format: organism-based; details: in vivo, 336 h
[26] = Half life in human microsomes at 0.5 uM; format: ADME, microsome; details: liver microsomes
[27] = Apparent clearance in human liver microsomes at 0.5 uM; format: ADME, microsome; details: read-out: CLH(app)
[28] = target: T2, Cytochrome P450 1A2 (Homo sapiens, UniProt P05177); assay: Inhibition of CYP1A2 in human microsomes in presence of NADPH; format: ADME
T2 sequence (P05177 whole entry): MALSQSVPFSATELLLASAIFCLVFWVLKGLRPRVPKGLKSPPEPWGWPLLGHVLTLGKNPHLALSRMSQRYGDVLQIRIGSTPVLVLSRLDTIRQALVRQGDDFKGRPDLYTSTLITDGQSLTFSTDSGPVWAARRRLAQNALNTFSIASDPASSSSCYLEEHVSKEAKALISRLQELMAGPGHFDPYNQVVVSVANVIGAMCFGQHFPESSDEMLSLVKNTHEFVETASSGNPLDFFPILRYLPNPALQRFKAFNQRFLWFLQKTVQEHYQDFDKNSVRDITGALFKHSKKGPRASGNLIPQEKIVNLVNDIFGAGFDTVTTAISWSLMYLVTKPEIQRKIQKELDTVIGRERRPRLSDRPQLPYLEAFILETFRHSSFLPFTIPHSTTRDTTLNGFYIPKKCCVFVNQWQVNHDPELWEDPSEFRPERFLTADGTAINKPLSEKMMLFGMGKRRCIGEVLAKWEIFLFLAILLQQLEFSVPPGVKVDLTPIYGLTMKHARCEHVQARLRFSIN

[29] = test system: Liver; assay: Intrinsic clearance in human liver microsomes at 0.5 uM; format: ADME, microsome

**Q.** With `O=c1c2ccccc2oc2c(Cc3ccc4c(c3)OCO4)[nH]c(-c3nccs3)c12` as the molecule, how does the IC50 [1] read?
**A.** 0.362 µM

**Q.** And the half-life [2]?
**A.** 5.17 h

**Q.** What about the Cmax [3] of the same molecule?
**A.** 368 ng/mL

**Q.** What about the IC50 [4] of the same molecule?
**A.** > 25 µM

**Q.** And the CLhep predicted at 0.5 µM [5]?
**A.** 10.9 mL/min/kg

**Q.** And the CLhep predicted at 0.5 µM [6]?
**A.** 35.6 mL/min/kg

**Q.** And the AUC(0-inf) [7]?
**A.** 1730 ng·h/mL

**Q.** What about the Activity [8] of the same molecule?
**A.** Non-Toxic

**Q.** What about the AUC(0-t) [9] of the same molecule?
**A.** 2000 ng·h/mL

**Q.** What about the MTD at 336 h [10] of the same molecule?
**A.** > 1500 mg/kg

**Q.** What about the IC50 [11] of the same molecule?
**A.** > 25 µM

**Q.** And the IC50 [12]?
**A.** 0.153 µM

**Q.** What about the Activity [13] of the same molecule?
**A.** Non-Toxic

**Q.** And the half-life [14]?
**A.** 6.02 h

**Q.** What about the Activity [15] of the same molecule?
**A.** Non-Toxic

**Q.** And the IC50 [16]?
**A.** > 20 µM

**Q.** What about the Activity [17] of the same molecule?
**A.** Non-Toxic

**Q.** And the IC50 [18]?
**A.** > 25 µM

**Q.** And the IC50 [19]?
**A.** > 10 µM

**Q.** What about the Activity [20] of the same molecule?
**A.** Non-Toxic

**Q.** And the Activity [21]?
**A.** Non-Toxic

**Q.** What about the IC50 [22] of the same molecule?
**A.** > 10 µM

**Q.** And the Activity [23]?
**A.** Active

**Q.** And the CLint scaled at 0.5 µM [24]?
**A.** 101 mL/min/kg

**Q.** What about the Activity [25] of the same molecule?
**A.** Non-Toxic

**Q.** And the half-life at 0.5 µM [26]?
**A.** 0.933 h

**Q.** What about the CLint scaled at 0.5 µM [27] of the same molecule?
**A.** 23.9 mL/min/kg

**Q.** And the IC50 [28]?
**A.** 7.6 µM

**Q.** What about the CLH [29] of the same molecule?
**A.** 24.8 µL/min/mg
